From US20120022159A1, “AMPHIPHILIC STAR-LIKE OR SCORPION-LIKE MACROMOLECULES, VARIOUS COMPOSITIONS AND USES THEREOF” (priority 2004, published 2012)

Test system: human umbilical vein endothelial cells (HUVECs)
Test: Uptake of dye-loaded AScMs in HUVEC monitored by cellular accumulation of fluorescent dyes
Format: cell-based
Description: Methods Amphiphilic scorpion-like macromolecules (AScMs) are block copolymers that form micelles at concentrations above their CMC (5×10^−7 M). The uptake of AScMs was investigated in human umbilical vein endothelial cells (HUVECs) by monitoring cellular accumulation of the fluorescent dyes (R110, R123 and LY, respectively). Briefly, fluorescent dyes were added to AScMs solutions (0.0001-1 mM) and incubated at 37° C. for at least 6 hours prior to cell incubation. After determination of R110, R123 and LY partitioning into the AScMs micelles, dye-loaded AScMs were incubated with HUVEC. Uptake of dye-loaded AScMs was investigated as a function of time (15, 30, 60, 90 and 120 minutes) and AScMs concentration (0.0001-1 mM). Furthermore, intracellular distribution and localization of dye-loaded AScMs in HUVEC was investigated using confocal microscope. […] The decreased accumulation of R110, R123 and LY in HUVEC monolayers was inversely correlated with the extent of their partitioning into AScMs. Uptake of R110, R123 and LY-loaded micelles was also time-dependent. […] Furthermore, confocal microscopy studies confirmed increased fluorescence activity in the cells with increase in the incubation time. […] Thus, AScMs can be used to localize therapeutic compounds into cells, for example, to achieve a sustained therapeutic effect.

[1] = AScMs at concentrations above the CMC
[2] = AScMs at concentrations below the CMC

Row | SMILES | dye accumulation in HUVEC monolayers [1] | dye accumulation in HUVEC monolayers [2]
1 | NNC(=O)NN1C(=O)c2cc(S(=O)(=O)[O-])cc3c(N)c(S(=O)(=O)[O-])cc(c23)C1=O.[Li+].[Li+] [LY] | significant decrease | significant increase
2 | Nc1ccc2c(-c3ccccc3C(=O)O)c3ccc(N)cc3[o+]c2c1.[Cl-] [R110] | significant decrease | significant increase
3 | COC(=O)c1ccccc1-c1c2ccc(N)cc2[o+]c2cc(N)ccc12 [R123] | significant decrease | significant increase
